Data on 16 molecules can be found in BindingDB's records for doi:10.1016/j.bmcl.2004.06.092 (Merck Research Laboratories, 2004).

Some results are limits rather than exact numbers.

Assay [1] has as its target T1, Dimer of Gag-Pol polyprotein [489-587,Q496K] (Human immunodeficiency virus 1, UniProt P12497, Q496K).
T1 construct: 489-587
In words: Protease Inhibition Assay. The note with it: pH 5.5; 30 °C. The method, then: (§1) Assay of HIV protease inhibition was performed by peptide cleavage using the substrate Val-Ser-Gln-Asn-beta-naphthylalanine*Pro-Ile-Val. Products of the cleavage reaction were quantified by HPLC detection, and data were fit to nonlinear least squares equations for determination of steady-state Michaelis-Menten kinetics.

Assay [2] addresses T2, Dimer of Gag-Pol polyprotein [489-587,Q496K,L499I,M525I,N526D,M535I,R546K,L552P,A560V,G562S,I573V,L579M,I582L] (Human immunodeficiency virus 1, UniProt P12497, A560V/G562S/I573V/I582L/L499I/L552P/L579M/M525I/M535I/N526D/Q496K/R546K).
T2 construct: 489-587
Put plainly: Protease Inhibition Assay. The procedure:
as §1

In the case of `COc1cncc(-c2cnc(C(C)(C)N3CCN(C[C@@H](O)C[C@@H](Cc4nnc(C)o4)C(=O)N[C@H]4c5ccccc5OC[C@H]4O)[C@H](C(=O)NCC(F)(F)F)C3)o2)c1` [(2S)-1-[(2S,4S)-2-hydroxy-4-{[(3S,4S)-3-hydroxy-3,4-dihydro-2H-1-benzopyran-4-yl]carbamoyl}-4-[(5-methyl-1,3,4-oxadiazol-2-yl)methyl]butyl]-4-{2-[5-(5-methoxypyridin-3-yl)-1,3-oxazol-2-yl]propan-2-yl}-N-(2,2,2-trifluoroethyl)piperazine-2-carboxamide], the half-maximal inhibitory concentration (IC50) in assay [1] worked out at 0.4 nM; in assay [2], 15 nM.

Consider `Cc1nnc(C[C@H](C[C@H](O)CN2CCN(C(C)(C)c3ncc(-c4ccc(F)cc4)o3)C[C@H]2C(=O)NCC(F)(F)F)C(=O)N[C@H]2c3ccccc3OC[C@H]2O)o1` [(2S)-4-{2-[5-(4-fluorophenyl)-1,3-oxazol-2-yl]propan-2-yl}-1-[(2S,4S)-2-hydroxy-4-{[(3S,4S)-3-hydroxy-3,4-dihydro-2H-1-benzopyran-4-yl]carbamoyl}-4-[(5-methyl-1,3,4-oxadiazol-2-yl)methyl]butyl]-N-(2,2,2-trifluoroethyl)piperazine-2-carboxamide], for which the concentration for half-maximal inhibition (IC50) is 0.027 nM in assay [1] and 0.19 nM in assay [2].

For `COc1cncc(-c2cnc(C(C)(C)N3CCN(C[C@@H](O)C[C@@H](Cc4nnc(-c5ccccc5)o4)C(=O)N[C@H]4c5ccccc5OC[C@H]4O)[C@H](C(=O)NCC(F)(F)F)C3)o2)c1` [(2S)-1-[(2S,4S)-2-hydroxy-4-{[(3S,4S)-3-hydroxy-3,4-dihydro-2H-1-benzopyran-4-yl]carbamoyl}-4-[(5-phenyl-1,3,4-oxadiazol-2-yl)methyl]butyl]-4-{2-[5-(5-methoxypyridin-3-yl)-1,3-oxazol-2-yl]propan-2-yl}-N-(2,2,2-trifluoroethyl)piperazine-2-carboxamide], the IC50 in assay [1] was found to be 0.48 nM.

As to `CC(C)(c1ncc(-c2ccc(F)cc2)o1)N1CCN(C[C@@H](O)C[C@@H](Cc2nnco2)C(=O)N[C@H]2c3ccccc3OC[C@H]2O)[C@H](C(=O)NCC(F)(F)F)C1` [(2S)-4-{2-[5-(4-fluorophenyl)-1,3-oxazol-2-yl]propan-2-yl}-1-[(2S,4S)-2-hydroxy-4-{[(3S,4S)-3-hydroxy-3,4-dihydro-2H-1-benzopyran-4-yl]carbamoyl}-4-(1,3,4-oxadiazol-2-ylmethyl)butyl]-N-(2,2,2-trifluoroethyl)piperazine-2-carboxamide], the IC50 in assay [1] is 0.024 nM; in assay [2] it was 0.065 nM.

Consider `CC(C)(c1ncc(-c2ccc(Cl)cc2)o1)N1CCN(C[C@@H](O)C[C@@H](Cc2nnc(-c3ccccc3)o2)C(=O)N[C@H]2c3ccccc3OC[C@H]2O)[C@H](C(=O)NCC(F)(F)F)C1` [(2S)-4-{2-[5-(4-chlorophenyl)-1,3-oxazol-2-yl]propan-2-yl}-1-[(2S,4S)-2-hydroxy-4-{[(3S,4S)-3-hydroxy-3,4-dihydro-2H-1-benzopyran-4-yl]carbamoyl}-4-[(5-phenyl-1,3,4-oxadiazol-2-yl)methyl]butyl]-N-(2,2,2-trifluoroethyl)piperazine-2-carboxamide], for which the IC50 in assay [1] was less than 0.015 nM; in assay [2], 0.18 nM.

`CCCc1nnc(C[C@H](C[C@H](O)CN2CCN(Cc3ccc(-c4ccc(Cl)cc4)o3)C[C@H]2C(=O)NCC(F)(F)F)C(=O)N[C@H]2c3ccccc3OC[C@H]2O)o1` [(2S)-4-{[5-(4-chlorophenyl)furan-2-yl]methyl}-1-[(2S,4S)-2-hydroxy-4-{[(3S,4S)-3-hydroxy-3,4-dihydro-2H-1-benzopyran-4-yl]carbamoyl}-4-[(5-propyl-1,3,4-oxadiazol-2-yl)methyl]butyl]-N-(2,2,2-trifluoroethyl)piperazine-2-carboxamide] yielded an IC50 in assay [1] of less than 0.015 nM.

In assay [1], `O=C(N[C@H]1c2ccccc2OC[C@H]1O)[C@H](Cc1nnc(-c2ccccc2)o1)C[C@H](O)CN1CCN(Cc2ccc(-c3ccc(Cl)cc3)o2)C[C@H]1C(=O)NCC(F)(F)F` [(2S)-4-{[5-(4-chlorophenyl)furan-2-yl]methyl}-1-[(2S,4S)-2-hydroxy-4-{[(3S,4S)-3-hydroxy-3,4-dihydro-2H-1-benzopyran-4-yl]carbamoyl}-4-[(5-phenyl-1,3,4-oxadiazol-2-yl)methyl]butyl]-N-(2,2,2-trifluoroethyl)piperazine-2-carboxamide] came in with an IC50 of 0.019 nM.

As to `CC(C)(c1ncc(-c2ccc(F)cc2)o1)N1CCN(C[C@@H](O)C[C@@H](Cc2nnc(-c3ccccc3)o2)C(=O)N[C@H]2c3ccccc3OC[C@H]2O)[C@H](C(=O)NCC(F)(F)F)C1` [(2S)-4-{2-[5-(4-fluorophenyl)-1,3-oxazol-2-yl]propan-2-yl}-1-[(2S,4S)-2-hydroxy-4-{[(3S,4S)-3-hydroxy-3,4-dihydro-2H-1-benzopyran-4-yl]carbamoyl}-4-[(5-phenyl-1,3,4-oxadiazol-2-yl)methyl]butyl]-N-(2,2,2-trifluoroethyl)piperazine-2-carboxamide], the IC50 in assay [1] stood at 0.02 nM.

As to `CCCc1nnc(C[C@H](C[C@H](O)CN2CCN(C(C)(C)c3ncc(-c4ccc(F)cc4)o3)C[C@H]2C(=O)NCC(F)(F)F)C(=O)N[C@H]2c3ccccc3OC[C@H]2O)o1` [(2S)-4-{2-[5-(4-fluorophenyl)-1,3-oxazol-2-yl]propan-2-yl}-1-[(2S,4S)-2-hydroxy-4-{[(3S,4S)-3-hydroxy-3,4-dihydro-2H-1-benzopyran-4-yl]carbamoyl}-4-[(5-propyl-1,3,4-oxadiazol-2-yl)methyl]butyl]-N-(2,2,2-trifluoroethyl)piperazine-2-carboxamide], the values for the IC50 in assay [1] and in assay [2] were 0.016 nM and 0.19 nM, respectively.

Regarding `COc1cncc(-c2cnc(C(C)(C)N3CCN(C[C@@H](O)C[C@@H](Cc4nnco4)C(=O)N[C@H]4c5ccccc5OC[C@H]4O)[C@H](C(=O)NCC(F)(F)F)C3)o2)c1` [(2S)-1-[(2S,4S)-2-hydroxy-4-{[(3S,4S)-3-hydroxy-3,4-dihydro-2H-1-benzopyran-4-yl]carbamoyl}-4-(1,3,4-oxadiazol-2-ylmethyl)butyl]-4-{2-[5-(5-methoxypyridin-3-yl)-1,3-oxazol-2-yl]propan-2-yl}-N-(2,2,2-trifluoroethyl)piperazine-2-carboxamide], the IC50 in assay [1] came to 0.24 nM; in assay [2] it was 7.4 nM.

In assay [1], `CCCc1nnc(C[C@H](C[C@H](O)CN2CCN(C(C)(C)c3ncc(-c4cncc(OC)c4)o3)C[C@H]2C(=O)NCC(F)(F)F)C(=O)N[C@H]2c3ccccc3OC[C@H]2O)o1` [(2S)-1-[(2S,4S)-2-hydroxy-4-{[(3S,4S)-3-hydroxy-3,4-dihydro-2H-1-benzopyran-4-yl]carbamoyl}-4-[(5-propyl-1,3,4-oxadiazol-2-yl)methyl]butyl]-4-{2-[5-(5-methoxypyridin-3-yl)-1,3-oxazol-2-yl]propan-2-yl}-N-(2,2,2-trifluoroethyl)piperazine-2-carboxamide] returned an IC50 of 0.32 nM.

As for `O=C(N[C@H]1c2ccccc2OC[C@H]1O)[C@H](Cc1nnco1)C[C@H](O)CN1CCN(Cc2ccc(-c3ccc(Cl)cc3)o2)C[C@H]1C(=O)NCC(F)(F)F` [(2S)-4-{[5-(4-chlorophenyl)furan-2-yl]methyl}-1-[(2S,4S)-2-hydroxy-4-{[(3S,4S)-3-hydroxy-3,4-dihydro-2H-1-benzopyran-4-yl]carbamoyl}-4-(1,3,4-oxadiazol-2-ylmethyl)butyl]-N-(2,2,2-trifluoroethyl)piperazine-2-carboxamide], the results for the IC50 in assay [1] and in assay [2] were 0.015 nM and 0.099 nM, respectively.

For `Cc1nnc(C[C@H](C[C@H](O)CN2CCN(Cc3ccc(-c4ccc(Cl)cc4)o3)C[C@H]2C(=O)NCC(F)(F)F)C(=O)N[C@H]2c3ccccc3OC[C@H]2O)o1` [(2S)-4-{[5-(4-chlorophenyl)furan-2-yl]methyl}-1-[(2S,4S)-2-hydroxy-4-{[(3S,4S)-3-hydroxy-3,4-dihydro-2H-1-benzopyran-4-yl]carbamoyl}-4-[(5-methyl-1,3,4-oxadiazol-2-yl)methyl]butyl]-N-(2,2,2-trifluoroethyl)piperazine-2-carboxamide], the IC50 in assay [1] is less than 0.015 nM.

Take `CCCc1nnc(C[C@H](C[C@H](O)CN2CCN(C(C)(C)c3ncc(-c4ccc(Cl)cc4)o3)C[C@H]2C(=O)NCC(F)(F)F)C(=O)N[C@H]2c3ccccc3OC[C@H]2O)o1` [(2S)-4-{2-[5-(4-chlorophenyl)-1,3-oxazol-2-yl]propan-2-yl}-1-[(2S,4S)-2-hydroxy-4-{[(3S,4S)-3-hydroxy-3,4-dihydro-2H-1-benzopyran-4-yl]carbamoyl}-4-[(5-propyl-1,3,4-oxadiazol-2-yl)methyl]butyl]-N-(2,2,2-trifluoroethyl)piperazine-2-carboxamide]: the IC50 in assay [1] was less than 0.015 nM; in assay [2], 0.12 nM.

On to `Cc1nnc(C[C@H](C[C@H](O)CN2CCN(C(C)(C)c3ncc(-c4ccc(Cl)cc4)o3)C[C@H]2C(=O)NCC(F)(F)F)C(=O)N[C@H]2c3ccccc3OC[C@H]2O)o1` [(2S)-4-{2-[5-(4-chlorophenyl)-1,3-oxazol-2-yl]propan-2-yl}-1-[(2S,4S)-2-hydroxy-4-{[(3S,4S)-3-hydroxy-3,4-dihydro-2H-1-benzopyran-4-yl]carbamoyl}-4-[(5-methyl-1,3,4-oxadiazol-2-yl)methyl]butyl]-N-(2,2,2-trifluoroethyl)piperazine-2-carboxamide], for which the IC50 in assay [1] was 0.016 nM; in assay [2], 0.06 nM.

For the molecule `CC(C)(c1ncc(-c2ccc(Cl)cc2)o1)N1CCN(C[C@@H](O)C[C@@H](Cc2nnco2)C(=O)N[C@H]2c3ccccc3OC[C@H]2O)[C@H](C(=O)NCC(F)(F)F)C1` [(2S)-4-{2-[5-(4-chlorophenyl)-1,3-oxazol-2-yl]propan-2-yl}-1-[(2S,4S)-2-hydroxy-4-{[(3S,4S)-3-hydroxy-3,4-dihydro-2H-1-benzopyran-4-yl]carbamoyl}-4-(1,3,4-oxadiazol-2-ylmethyl)butyl]-N-(2,2,2-trifluoroethyl)piperazine-2-carboxamide], the IC50 in assay [1] is less than 0.015 nM; in assay [2], 0.043 nM.

One may read the IC50 as the point on the concentration scale where inhibition reaches its midpoint. Low readings indicate greater potency, high ones weaker potency.
